ChEMBL document CHEMBL5518207, “Structure Guided Discovery of Novel Pan Metallo-β-Lactamase Inhibitors with Improved Gram-Negative Bacterial Cell Penetration” (J Med Chem, 2024)
pIC50: −log10 of the molar value.

Legend:
[1] = Cmax in rat at 1 mg/kg, iv measured after 24 hrs by HPLC-MS analysis; assay type: ADME, organism-based; conditions: in vivo
[2] = Toxicity in Beagle dog assessed as increase in histamine level in plasma at 1 mg/kg, iv measured upto 24 hrs by HPLC-MS analysis; assay type: organism-based, Canis lupus familiaris; conditions: in vivo
[3] = Toxicity in Beagle dog assessed as appearance of watery eyes at 1 mg/kg, iv measured after 24 hrs by HPLC-MS analysis; assay type: organism-based, Canis lupus familiaris; conditions: in vivo
Cytochrome P450 3A4 = Cytochrome P450 3A4 (Homo sapiens, UniProt P08684); test: Inhibition of CYP3A4 (unknown origin); assay type: ADME
Cytochrome P450 3A4, sequence (P08684 whole entry): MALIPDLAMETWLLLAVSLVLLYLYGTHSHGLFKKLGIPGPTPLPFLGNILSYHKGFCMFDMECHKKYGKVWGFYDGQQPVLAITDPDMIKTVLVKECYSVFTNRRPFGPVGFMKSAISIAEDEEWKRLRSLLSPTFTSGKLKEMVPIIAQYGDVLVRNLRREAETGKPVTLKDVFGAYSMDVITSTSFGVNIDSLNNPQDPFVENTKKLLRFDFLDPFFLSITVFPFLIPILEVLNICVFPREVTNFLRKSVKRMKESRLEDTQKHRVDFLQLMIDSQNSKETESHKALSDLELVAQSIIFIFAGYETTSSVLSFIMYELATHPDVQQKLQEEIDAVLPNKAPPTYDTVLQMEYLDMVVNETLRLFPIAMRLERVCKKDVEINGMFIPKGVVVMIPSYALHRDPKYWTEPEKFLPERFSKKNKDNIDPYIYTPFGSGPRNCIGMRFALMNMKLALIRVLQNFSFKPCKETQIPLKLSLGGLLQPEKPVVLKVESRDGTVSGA

[4] = Unbound fraction in Beagle dog plasma at 1 mg/kg, iv measured after 24 hrs by HPLC-MS analysis; assay type: ADME, organism-based, Canis lupus familiaris
[5] = AUC in Beagle dog at 1 mg/kg, iv measured after 24 hrs by HPLC-MS analysis; assay type: ADME, organism-based, Canis lupus familiaris; conditions: in vivo
[6] = biological target: Sodium channel protein type 5 subunit alpha (Homo sapiens, UniProt Q14524); test: Inhibition of NaV 1.5 channel (unknown origin)
Sodium channel protein type 5 subunit alpha, sequence (Q14524 whole entry): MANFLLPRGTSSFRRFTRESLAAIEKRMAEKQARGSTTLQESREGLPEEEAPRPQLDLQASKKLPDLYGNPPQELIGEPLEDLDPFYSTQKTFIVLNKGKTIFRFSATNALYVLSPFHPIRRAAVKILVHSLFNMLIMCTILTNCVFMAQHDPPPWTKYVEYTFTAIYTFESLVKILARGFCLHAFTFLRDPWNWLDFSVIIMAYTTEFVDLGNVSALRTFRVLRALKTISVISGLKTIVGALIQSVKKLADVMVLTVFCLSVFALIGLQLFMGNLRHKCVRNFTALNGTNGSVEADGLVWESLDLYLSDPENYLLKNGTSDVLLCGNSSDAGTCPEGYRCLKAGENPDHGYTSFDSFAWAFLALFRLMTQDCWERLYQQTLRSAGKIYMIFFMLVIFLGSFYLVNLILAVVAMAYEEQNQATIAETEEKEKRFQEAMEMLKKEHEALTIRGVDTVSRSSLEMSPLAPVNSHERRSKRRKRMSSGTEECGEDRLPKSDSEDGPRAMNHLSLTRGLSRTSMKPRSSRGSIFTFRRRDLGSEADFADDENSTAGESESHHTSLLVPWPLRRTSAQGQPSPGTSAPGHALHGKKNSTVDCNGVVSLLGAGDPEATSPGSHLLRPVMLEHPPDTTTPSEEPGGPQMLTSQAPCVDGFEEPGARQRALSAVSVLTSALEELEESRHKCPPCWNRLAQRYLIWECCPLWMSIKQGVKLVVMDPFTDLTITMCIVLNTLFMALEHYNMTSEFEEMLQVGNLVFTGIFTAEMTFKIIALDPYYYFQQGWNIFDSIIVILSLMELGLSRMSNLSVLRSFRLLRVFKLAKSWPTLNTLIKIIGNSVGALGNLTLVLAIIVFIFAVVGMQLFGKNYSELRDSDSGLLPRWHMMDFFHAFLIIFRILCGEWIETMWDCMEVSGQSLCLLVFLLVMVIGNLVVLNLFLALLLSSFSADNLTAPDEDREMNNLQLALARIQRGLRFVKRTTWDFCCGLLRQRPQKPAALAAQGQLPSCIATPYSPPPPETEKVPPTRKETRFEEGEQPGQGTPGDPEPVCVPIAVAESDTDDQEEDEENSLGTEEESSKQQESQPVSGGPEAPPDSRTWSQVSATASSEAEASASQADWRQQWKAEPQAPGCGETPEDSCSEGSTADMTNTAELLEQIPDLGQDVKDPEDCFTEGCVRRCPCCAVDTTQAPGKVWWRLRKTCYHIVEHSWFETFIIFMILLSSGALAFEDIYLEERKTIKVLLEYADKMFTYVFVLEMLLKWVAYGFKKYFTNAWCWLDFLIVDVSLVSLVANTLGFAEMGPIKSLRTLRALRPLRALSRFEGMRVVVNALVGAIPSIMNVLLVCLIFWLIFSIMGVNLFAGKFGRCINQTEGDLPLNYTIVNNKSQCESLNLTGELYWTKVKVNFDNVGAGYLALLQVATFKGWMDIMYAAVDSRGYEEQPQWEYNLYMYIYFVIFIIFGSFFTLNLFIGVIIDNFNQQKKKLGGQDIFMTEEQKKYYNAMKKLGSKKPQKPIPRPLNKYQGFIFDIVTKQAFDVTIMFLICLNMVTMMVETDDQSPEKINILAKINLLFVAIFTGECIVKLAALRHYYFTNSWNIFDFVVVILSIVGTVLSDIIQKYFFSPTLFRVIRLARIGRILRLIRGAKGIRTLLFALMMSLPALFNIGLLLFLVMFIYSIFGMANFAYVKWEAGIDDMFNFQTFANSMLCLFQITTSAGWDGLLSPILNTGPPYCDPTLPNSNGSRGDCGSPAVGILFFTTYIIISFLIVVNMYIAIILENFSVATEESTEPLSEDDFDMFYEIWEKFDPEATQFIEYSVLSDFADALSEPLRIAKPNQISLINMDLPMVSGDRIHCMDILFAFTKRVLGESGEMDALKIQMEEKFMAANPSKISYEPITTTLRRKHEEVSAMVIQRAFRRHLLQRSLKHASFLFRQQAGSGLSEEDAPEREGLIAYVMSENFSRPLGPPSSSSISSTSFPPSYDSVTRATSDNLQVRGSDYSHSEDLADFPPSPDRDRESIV

Klebsiella pneumoniae = test: Potentiation of imipenem induced antibacterial activity against Klebsiella pneumoniae IHMA599644 harbouring VIM-1 incubated for 18 to 22 hrs imipenem by spectrophotometer based analysis; assay type: functional; conditions: time 18-22 hrs
[7] = Inhibition of GST tagged VIM-1 (unknown origin) expressed in Escherichia coli BL21 Star (DE3) competent cells using CCF2-FA as substrate incubated for 2 hrs by fluorescence based analysis
[8] = Inhibition of GST tagged NDM-1 (unknown origin) expressed in Escherichia coli BL21 Star (DE3) competent cells using CCF2-FA as substrate incubated for 2 hrs by fluorescence based analysis
Cytochrome P450 2C9 = Cytochrome P450 2C9 (Homo sapiens, UniProt P11712); test: Inhibition of CYP2C9 (unknown origin); assay type: ADME
[9] = AUC in rat at 1 mg/kg, iv measured after 24 hrs by HPLC-MS analysis; assay type: ADME, organism-based; conditions: in vivo
[10] = Cmax in Wistar rat at 30 mg/kg, iv measured after 24 hrs by HPLC-MS analysis; assay type: ADME, organism-based; conditions: in vivo
[11] = Volume of distribution at steady state in rat at 1 mg/kg, iv measured after 24 hrs by HPLC-MS analysis; assay type: ADME, organism-based; conditions: in vivo, read-out: Vdss
Cytochrome P450 2C8 = biological target: T1, Cytochrome P450 2C8 (Homo sapiens, UniProt P10632); test: Inhibition of CYP2C8 (unknown origin); assay type: ADME
T1 sequence (P10632 whole entry): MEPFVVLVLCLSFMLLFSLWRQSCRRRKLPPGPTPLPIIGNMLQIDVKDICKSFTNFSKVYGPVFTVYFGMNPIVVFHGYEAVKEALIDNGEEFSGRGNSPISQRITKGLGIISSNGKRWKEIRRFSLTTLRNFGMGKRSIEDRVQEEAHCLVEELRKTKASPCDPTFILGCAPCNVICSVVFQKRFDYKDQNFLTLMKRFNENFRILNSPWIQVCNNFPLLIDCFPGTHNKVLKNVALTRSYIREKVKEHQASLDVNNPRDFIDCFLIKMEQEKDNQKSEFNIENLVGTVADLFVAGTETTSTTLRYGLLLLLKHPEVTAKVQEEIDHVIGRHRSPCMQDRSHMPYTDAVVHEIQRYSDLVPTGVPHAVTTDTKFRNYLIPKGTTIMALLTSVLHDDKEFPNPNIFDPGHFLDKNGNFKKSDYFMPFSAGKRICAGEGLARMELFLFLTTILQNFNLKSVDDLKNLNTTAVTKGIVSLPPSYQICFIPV

[12] = Volume of distribution at steady state in Beagle dog at 1 mg/kg, iv measured after 24 hrs by HPLC-MS analysis; assay type: ADME, organism-based, Canis lupus familiaris; conditions: in vivo, read-out: Vdss
[13] = Clearance in Beagle dog at 1 mg/kg, iv measured after 24 hrs by HPLC-MS analysis; assay type: ADME, organism-based, Canis lupus familiaris; conditions: in vivo
[14] = Inhibition of GST tagged IMP-1 (unknown origin) expressed in Escherichia coli BL21 Star (DE3) competent cells using CCF2-FA as substrate incubated for 2 hrs by fluorescence based analysis
Pseudomonas aeruginosa [15] = test: Efflux ratio of MITC95 for potentiation of imipenem induced antibacterial activity against isogenic efflux wild type Pseudomonas aeruginosa MB9798 harbouring IMP to MITC95 for potentiation of imipenem induced antibacterial activity against isogenic efflux deleted mutant Pseudomonas aeruginosa MB9799 harbouring IMP; assay type: functional
Pseudomonas aeruginosa [16] = test: Potentiation of imipenem induced antibacterial activity against isogenic efflux deleted mutant Pseudomonas aeruginosa MB9799 harbouring IMP incubated for 18 to 22 hrs imipenem and beta lactamase inhibitor by spectrophotometer based analysis; assay type: functional; conditions: time 18-22 hrs
[17] = Toxicity in Wistar rat assessed as increase in histamine concentration in plasma at 30 mg/kg, iv measured after 24 hrs; assay type: organism-based; conditions: in vivo
[18] = biological target: Voltage-gated potassium channel, IKs; KCNQ1(Kv7.1)/KCNE1(MinK) (Homo sapiens, UniProt P15382+P51787); test: Inhibition of KCNQ1/KCNE1 (unknown origin); assay type: protein-complex assay
Voltage-gated potassium channel, IKs; KCNQ1(Kv7.1)/KCNE1(MinK), sequence (P51787 whole entry): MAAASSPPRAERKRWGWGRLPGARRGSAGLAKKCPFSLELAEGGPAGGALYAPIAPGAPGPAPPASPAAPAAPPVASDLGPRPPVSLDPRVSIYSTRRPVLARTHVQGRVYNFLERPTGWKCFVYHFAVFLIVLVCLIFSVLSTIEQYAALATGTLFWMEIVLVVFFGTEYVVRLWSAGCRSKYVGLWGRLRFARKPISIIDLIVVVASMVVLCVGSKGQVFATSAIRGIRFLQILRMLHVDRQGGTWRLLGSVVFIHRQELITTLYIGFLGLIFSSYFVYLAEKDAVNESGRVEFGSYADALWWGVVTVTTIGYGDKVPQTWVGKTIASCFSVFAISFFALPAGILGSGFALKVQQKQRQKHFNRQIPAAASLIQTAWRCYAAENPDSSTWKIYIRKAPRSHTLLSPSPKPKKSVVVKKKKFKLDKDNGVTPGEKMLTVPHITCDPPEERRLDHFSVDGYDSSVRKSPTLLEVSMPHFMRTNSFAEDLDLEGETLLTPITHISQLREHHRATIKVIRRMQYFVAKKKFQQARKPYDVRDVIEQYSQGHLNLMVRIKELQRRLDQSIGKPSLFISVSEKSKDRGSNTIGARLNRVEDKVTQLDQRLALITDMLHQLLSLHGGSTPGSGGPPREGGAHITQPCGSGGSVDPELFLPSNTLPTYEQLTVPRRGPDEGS

Cytochrome P450 2D6 = Cytochrome P450 2D6 (Homo sapiens, UniProt P10635); test: Inhibition of CYP2D6 (unknown origin); assay type: ADME
Cytochrome P450 2D6, sequence (P10635 whole entry): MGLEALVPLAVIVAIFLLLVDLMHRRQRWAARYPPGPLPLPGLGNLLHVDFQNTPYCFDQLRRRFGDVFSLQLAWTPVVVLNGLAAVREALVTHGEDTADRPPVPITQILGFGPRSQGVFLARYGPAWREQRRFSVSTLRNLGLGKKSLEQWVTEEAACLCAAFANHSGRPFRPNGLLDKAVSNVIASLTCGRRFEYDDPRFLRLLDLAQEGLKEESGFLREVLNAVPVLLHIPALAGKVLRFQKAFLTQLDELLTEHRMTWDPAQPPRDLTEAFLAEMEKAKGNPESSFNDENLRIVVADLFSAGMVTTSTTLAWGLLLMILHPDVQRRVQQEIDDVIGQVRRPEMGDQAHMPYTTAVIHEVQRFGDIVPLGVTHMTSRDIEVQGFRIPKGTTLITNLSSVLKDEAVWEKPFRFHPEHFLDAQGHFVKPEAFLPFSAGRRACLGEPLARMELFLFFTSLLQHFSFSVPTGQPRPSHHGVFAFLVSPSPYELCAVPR

Pseudomonas aeruginosa [19] = test: Potentiation of imipenem induced antibacterial activity against isogenic efflux wild type Pseudomonas aeruginosa MB9798 harbouring IMP incubated for 18 to 22 hrs imipenem and beta lactamase inhibitor by spectrophotometer based analysis; assay type: functional; conditions: time 18-22 hrs
[20] = Toxicity in Wistar rat assessed as decrease in mean blood pressure at 30 mg/kg, iv measured after 20 mins; assay type: organism-based; conditions: in vivo
[21] = MRT in Beagle dog at 1 mg/kg, iv measured after 24 hrs by HPLC-MS analysis; assay type: ADME, organism-based, Canis lupus familiaris; conditions: in vivo
Escherichia coli = test: Potentiation of imipenem induced antibacterial activity against Escherichia coli CLB30005 harbouring NDM-1 incubated for 18 to 22 hrs in presence of imipenem by spectrophotometer based analysis; assay type: functional; conditions: time 18-22 hrs
[22] = biological target: Voltage-gated inwardly rectifying potassium channel KCNH2 (Homo sapiens, UniProt Q12809); test: Inhibition of human ERG; assay type: toxicity
Voltage-gated inwardly rectifying potassium channel KCNH2, sequence (Q12809 whole entry): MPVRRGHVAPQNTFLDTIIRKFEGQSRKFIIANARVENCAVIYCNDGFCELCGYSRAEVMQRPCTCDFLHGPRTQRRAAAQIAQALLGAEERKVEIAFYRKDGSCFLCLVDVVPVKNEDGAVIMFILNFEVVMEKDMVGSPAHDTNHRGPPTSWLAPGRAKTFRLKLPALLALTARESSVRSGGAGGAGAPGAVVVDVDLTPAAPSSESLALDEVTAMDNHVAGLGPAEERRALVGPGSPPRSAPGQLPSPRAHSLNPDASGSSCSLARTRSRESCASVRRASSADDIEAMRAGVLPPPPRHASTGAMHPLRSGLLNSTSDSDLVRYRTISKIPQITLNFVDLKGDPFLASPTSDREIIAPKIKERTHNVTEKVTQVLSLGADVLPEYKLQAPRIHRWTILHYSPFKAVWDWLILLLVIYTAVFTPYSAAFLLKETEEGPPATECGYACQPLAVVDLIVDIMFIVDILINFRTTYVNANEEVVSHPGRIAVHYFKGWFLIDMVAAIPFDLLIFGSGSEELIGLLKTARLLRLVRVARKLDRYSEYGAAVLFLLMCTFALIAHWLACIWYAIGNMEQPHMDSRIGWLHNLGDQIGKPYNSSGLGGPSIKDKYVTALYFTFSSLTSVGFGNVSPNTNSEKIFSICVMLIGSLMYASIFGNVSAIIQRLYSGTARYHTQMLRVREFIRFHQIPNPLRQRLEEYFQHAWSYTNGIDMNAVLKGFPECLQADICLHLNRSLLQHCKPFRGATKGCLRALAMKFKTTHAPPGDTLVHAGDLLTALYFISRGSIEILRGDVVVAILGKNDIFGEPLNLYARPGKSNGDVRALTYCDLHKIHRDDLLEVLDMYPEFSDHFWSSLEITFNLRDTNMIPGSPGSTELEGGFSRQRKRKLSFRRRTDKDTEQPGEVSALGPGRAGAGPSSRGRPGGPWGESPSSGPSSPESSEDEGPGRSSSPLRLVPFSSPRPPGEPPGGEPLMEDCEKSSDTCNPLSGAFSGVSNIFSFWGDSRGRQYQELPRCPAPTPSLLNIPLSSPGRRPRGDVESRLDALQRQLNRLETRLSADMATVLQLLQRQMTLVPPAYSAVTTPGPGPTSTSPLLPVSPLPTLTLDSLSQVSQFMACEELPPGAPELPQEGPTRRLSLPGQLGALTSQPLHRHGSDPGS

[23] = Toxicity in Beagle dog assessed as emesis at 1 mg/kg, iv measured after 24 hrs by HPLC-MS analysis; assay type: organism-based, Canis lupus familiaris; conditions: in vivo
[24] = Unbound fraction in rat plasma at 1 mg/kg, iv measured after 24 hrs by HPLC-MS analysis; assay type: ADME, organism-based
[25] = MRT in rat at 1 mg/kg, iv measured after 24 hrs by HPLC-MS analysis; assay type: ADME, organism-based; conditions: in vivo
Serratia marcescens = test: Potentiation of imipenem induced antibacterial activity against Serratia marcescens CL5741 harbouring IMP-1 incubated for 18 to 22 hrs imipenem by spectrophotometer based analysis; assay type: functional; conditions: time 18-22 hrs
[26] = Cmax in Beagle dog at 1 mg/kg, iv measured after 24 hrs by HPLC-MS analysis; assay type: ADME, organism-based, Canis lupus familiaris; conditions: in vivo
[27] = Clearance in rat at 1 mg/kg, iv measured after 24 hrs by HPLC-MS analysis; assay type: ADME, organism-based; conditions: in vivo
[28] = Inhibition of GST tagged VIM-2 (unknown origin) expressed in Escherichia coli BL21 Star (DE3) competent cells using CCF2-FA as substrate incubated for 2 hrs by fluorescence based analysis
[29] = biological target: Voltage-dependent L-type calcium channel subunit alpha-1C (Homo sapiens, UniProt Q13936); test: Inhibition of Cav1.2 channel (unknown origin)
[30] = Toxicity in Wistar rat assessed as increase in histamine concentration in plasma at 100 mg/kg, iv measured after 24 hrs; assay type: organism-based; conditions: in vivo
[31] = Toxicity in Beagle dog assessed as drug tolerability at 1 mg/kg, iv measured after 24 hrs by HPLC-MS analysis; assay type: organism-based, Canis lupus familiaris; conditions: in vivo
[32] = Volume of distribution at steady state in rat at 5 mg/kg, iv measured after 24 hrs by HPLC-MS analysis; assay type: ADME, organism-based; conditions: in vivo, read-out: Vdss
[33] = AUC in rat at 5 mg/kg, iv measured after 24 hrs by HPLC-MS analysis; assay type: ADME, organism-based; conditions: in vivo
[34] = Cmax in Wistar rat at 100 mg/kg, iv measured after 24 hrs by HPLC-MS analysis; assay type: ADME, organism-based; conditions: in vivo
[35] = MRT in rat at 5 mg/kg, iv measured after 24 hrs by HPLC-MS analysis; assay type: ADME, organism-based; conditions: in vivo
[36] = Unbound fraction in rat plasma at 5 mg/kg, iv measured after 24 hrs by HPLC-MS analysis; assay type: ADME, organism-based
[37] = Cmax in rat at 5 mg/kg, iv measured after 24 hrs by HPLC-MS analysis; assay type: ADME, organism-based; conditions: in vivo
[38] = Toxicity in Wistar rat assessed as decrease in mean blood pressure at 100 mg/kg, iv measured after 20 mins; assay type: organism-based; conditions: in vivo
[39] = Clearance in rat at 5 mg/kg, iv measured after 24 hrs by HPLC-MS analysis; assay type: ADME, organism-based; conditions: in vivo
[40] = Cmax in Wistar rat at 5 mg/kg, iv administered as bolus dose measured after 24 hrs by HPLC-MS analysis; assay type: ADME, organism-based; conditions: in vivo

SMILES	pIC50 (Cytochrome P450 3A4)	pIC50 [6]	MITC95 (Klebsiella pneumoniae) [µM]	pIC50 [7]	pIC50 [8]	pIC50 (Cytochrome P450 2C9)	pIC50 (Cytochrome P450 2C8)	pIC50 [14]	Ratio (Pseudomonas aeruginosa [15])	MITC95 (Pseudomonas aeruginosa [16]) [µM]	pIC50 [18]	pIC50 (Cytochrome P450 2D6)	MITC95 (Pseudomonas aeruginosa [19]) [µM]	MITC95 (Escherichia coli) [µM]	pIC50 [22]	MITC95 (Serratia marcescens) [µM]	Cmax [26] [µM]	pIC50 [28]	pIC50 [29]	further results
NS(=O)(=O)c1c(CC2CCNCC2)ccc(-c2ccc(C3CCNCC3)cc2)c1-c1nn[nH]n1	< 4.30	< 4.52	2.3	8.30	7.96	< 4.30	< 4.30	7.62	6	0.8	< 4.52	< 4.30	4.4	2	< 4.52	3.9	15	5.91	< 4.52	Cmax [1]: 8.6 µM; Activity [2]: Toxic; Activity [3]: Toxic; fraction unbound at 24 h [4]: 0.84; AUC at 24 h [5]: 10.4 µM·h; AUC at 24 h [9]: 5.5 µM·h; Cmax [10]: 459 µM; Vd [11]: 0.34 L/kg; Vd [12]: 0.45 L/kg; clearance [13]: 3.5 mL/min/kg; Activity [17]: Toxic; Activity [20]: Toxic; MRT [21]: 3.2 h; Activity [23]: Toxic; fraction unbound at 24 h [24]: 0.8; MRT [25]: 52.8 min; clearance [27]: 6.4 mL/min/kg
NS(=O)(=O)c1c(C(F)(F)F)ccc(-c2ccc(C3CCN(CC4CNC4)CC3)cc2)c1-c1nnn[nH]1	< 4.30	< 4.52	7.8	8.42	8.64	< 4.30	< 4.30	9.40	12	0.39	< 4.52	< 4.30	4.7	0.6	< 4.52	1.6	13.8	7.21	< 4.52	Activity [30]: Toxic; Activity [31]: Non-Toxic; Vd [32]: 0.73 L/kg; AUC at 24 h [33]: 9.6 µM·h; Cmax [34]: 726 µM; MRT [35]: 42.6 min; fraction unbound at 24 h [36]: 0.35; Cmax [37]: 33.1 µM; Activity [38]: Toxic; clearance [39]: 19 mL/min/kg
NS(=O)(=O)c1c(CC2CNC2)ccc(-c2ccc(C3CCNCC3)cc2)c1-c1nn[nH]n1	–	–	1.6	8.15	7.96	–	–	7.59	4	0.8	–	–	3.1	0.8	–	1.6	–	–	–	Cmax [40]: 45 µM
